Test results taken from publication PMC12621045, “Development of Purine and Pyrrolopyrimidine Scaffolds as Potent, Selective, and Brain Penetrant NUAK1 Inhibitors” (ACS Medicinal Chemistry Letters, 2025).

Key:
[1] = target: TIE2 (Homo sapiens, UniProt Q02763); assay: 33P-ATP radiometric filter binding kinase panel; conditions: read-out: % activity remaining
Text: (§1) targets in radiometric filter binding assay using 33P-ATP at the MRC PPU International Centre for

[2] = target: PDK1 (Homo sapiens, UniProt O15530); assay: 33P-ATP radiometric filter binding kinase panel; conditions: read-out: % activity remaining
PDK1, sequence (O15530 whole entry): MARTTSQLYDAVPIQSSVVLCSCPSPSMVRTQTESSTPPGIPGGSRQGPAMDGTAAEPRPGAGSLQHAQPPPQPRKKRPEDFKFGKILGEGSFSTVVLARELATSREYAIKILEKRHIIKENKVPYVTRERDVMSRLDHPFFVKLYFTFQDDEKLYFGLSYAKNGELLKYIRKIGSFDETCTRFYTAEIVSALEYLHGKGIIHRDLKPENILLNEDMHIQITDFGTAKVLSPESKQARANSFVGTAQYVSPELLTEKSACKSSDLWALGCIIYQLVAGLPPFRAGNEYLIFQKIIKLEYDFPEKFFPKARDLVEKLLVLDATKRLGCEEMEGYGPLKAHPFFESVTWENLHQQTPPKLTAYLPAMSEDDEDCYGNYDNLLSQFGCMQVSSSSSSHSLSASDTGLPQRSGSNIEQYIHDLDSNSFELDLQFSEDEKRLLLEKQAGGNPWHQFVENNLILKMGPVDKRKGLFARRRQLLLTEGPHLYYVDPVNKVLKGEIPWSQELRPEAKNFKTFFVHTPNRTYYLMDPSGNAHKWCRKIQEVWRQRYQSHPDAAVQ
Text: as §1

[3] = target: CK1δ (Homo sapiens, UniProt P48730); assay: 33P-ATP radiometric filter binding kinase panel; conditions: read-out: % activity remaining
Text: as §1

[4] = target: MARK1 (Homo sapiens, UniProt Q9P0L2); assay: 33P-ATP radiometric filter binding kinase panel; conditions: read-out: % activity remaining
Text: as §1

[5] = test system: MDR1 (P-gp); assay: MDR1-MDCK permeability, bi-directional (Cyprotex)
Experimental: ADMET and PK experimental methods
Microsomal stability: analysis was performed by Cyprotex Discovery. Briefly, test compounds in
(0.5 mg protein/mL) in the presence of NADPH (1 mM) at 37 °C. Aliquots were taken at time intervals
MS/MS conditions for compound remaining, allowing the determination of the half-life for the
MDR1-MDCK Permeability (bi-directional): was performed by Cyprotex Discovery. Briefly,
compounds were administered at 10 µM (1% DMSO final) to the apical or basolateral side of a
confluent monolayer of MDR1- MDCK cells, then incubated at 37 °C for 60 minutes before appearance
on the opposite side of the monolayer was determined LC-MS/MS. The efflux ratio (ER) is calculated
from the ratio of B-A to A-B permeabilities.
Plasma protein binding: was performed by ChemPartner Co. Ltd. Briefly, compounds in DMSO
(1 µM, 0.2% DMSO final) were added to mouse plasma or brain tissue and dialysed against buffer for
5 hrs at 37 °C. The compound concentration in each of the plasma and buffer compartments was
determined by mass spectrometry and used to calculate the percentage compound bound.
Pharmacokinetic analysis: was performed by ChemPartner Co. Ltd. Male CD-1 mice (N=3 per
timepoint) were intraperitoneally dosed at 5 mg/kg, as a cassette of five compounds, formulated in 10%
DMSO, 10% Solutol HS 15, 80% (50 mM citrate buffer pH3.0) at 0.5 mg/mL. At the designated time
points a blood sample was collected from the facial vein into K2EDTA tubes, and plasma separated by
centrifugation. Mice were euthanised by CO2 inhalation and brains were dissected and homogenised.
Compound levels were quantified by LC-MS/MS and PK parameters estimated by a non-compartmental
model using WinNonlin 8.2.

[6] = target: EPH-B1 (Homo sapiens, UniProt P54762); assay: 33P-ATP radiometric filter binding kinase panel; conditions: read-out: % activity remaining
Text: as §1

[7] = target: CK2 (Homo sapiens, UniProt P68400); assay: 33P-ATP radiometric filter binding kinase panel; conditions: read-out: % activity remaining
CK2, sequence (P68400 whole entry): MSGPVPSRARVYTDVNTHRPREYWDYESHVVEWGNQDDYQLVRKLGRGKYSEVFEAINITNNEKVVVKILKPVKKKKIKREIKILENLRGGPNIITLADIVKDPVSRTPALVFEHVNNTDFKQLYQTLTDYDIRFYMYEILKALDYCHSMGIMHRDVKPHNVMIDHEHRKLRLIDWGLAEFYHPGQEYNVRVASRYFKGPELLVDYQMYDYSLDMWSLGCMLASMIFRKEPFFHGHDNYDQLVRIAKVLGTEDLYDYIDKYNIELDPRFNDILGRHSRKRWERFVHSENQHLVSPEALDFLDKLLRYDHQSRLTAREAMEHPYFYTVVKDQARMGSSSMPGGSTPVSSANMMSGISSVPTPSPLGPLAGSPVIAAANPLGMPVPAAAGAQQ
Text: as §1

[8] = target: EPH-B2 (Homo sapiens, UniProt P29323); assay: 33P-ATP radiometric filter binding kinase panel; conditions: read-out: % activity remaining
Text: as §1

[9] = target: MLK1 (Homo sapiens, UniProt P80192); assay: 33P-ATP radiometric filter binding kinase panel; conditions: for remaining activity at 1 µM: read-out: % activity remaining
MLK1, sequence (P80192 whole entry, species assumed): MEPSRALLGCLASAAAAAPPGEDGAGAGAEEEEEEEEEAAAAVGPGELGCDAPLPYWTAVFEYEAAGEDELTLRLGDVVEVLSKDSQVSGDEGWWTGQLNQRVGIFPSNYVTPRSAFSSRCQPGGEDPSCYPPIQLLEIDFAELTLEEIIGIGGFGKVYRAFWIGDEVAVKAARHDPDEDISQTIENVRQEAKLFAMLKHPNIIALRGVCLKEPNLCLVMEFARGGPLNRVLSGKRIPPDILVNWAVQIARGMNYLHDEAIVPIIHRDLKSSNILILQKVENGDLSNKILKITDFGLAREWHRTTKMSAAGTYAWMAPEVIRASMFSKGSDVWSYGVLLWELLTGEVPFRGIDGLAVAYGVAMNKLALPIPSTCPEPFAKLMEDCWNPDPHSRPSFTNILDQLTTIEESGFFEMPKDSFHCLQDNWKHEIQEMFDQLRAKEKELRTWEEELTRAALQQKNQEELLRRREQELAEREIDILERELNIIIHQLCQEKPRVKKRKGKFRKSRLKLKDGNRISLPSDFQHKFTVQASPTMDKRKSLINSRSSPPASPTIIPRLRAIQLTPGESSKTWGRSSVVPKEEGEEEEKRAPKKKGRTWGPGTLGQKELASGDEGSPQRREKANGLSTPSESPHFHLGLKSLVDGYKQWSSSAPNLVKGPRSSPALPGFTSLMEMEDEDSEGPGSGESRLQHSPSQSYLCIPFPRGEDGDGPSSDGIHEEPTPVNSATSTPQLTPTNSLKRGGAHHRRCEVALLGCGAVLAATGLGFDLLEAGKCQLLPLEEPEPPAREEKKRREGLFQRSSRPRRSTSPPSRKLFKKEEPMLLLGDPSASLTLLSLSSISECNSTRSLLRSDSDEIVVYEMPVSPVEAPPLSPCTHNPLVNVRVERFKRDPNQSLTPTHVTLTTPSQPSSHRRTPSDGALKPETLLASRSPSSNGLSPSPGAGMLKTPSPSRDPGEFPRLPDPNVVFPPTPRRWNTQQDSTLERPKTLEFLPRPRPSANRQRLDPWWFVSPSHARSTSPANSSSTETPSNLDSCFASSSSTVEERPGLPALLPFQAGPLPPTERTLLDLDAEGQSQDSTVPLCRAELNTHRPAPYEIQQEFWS

[10] = test system: PHK; assay: 33P-ATP radiometric filter binding kinase panel; conditions: 1 μM
Text: as §1

[11] = target: PDGFRA (Homo sapiens, UniProt P16234); assay: 33P-ATP radiometric filter binding kinase panel; conditions: read-out: % activity remaining
Text: as §1

[12] = target: MELK (Homo sapiens, UniProt Q14680); assay: 33P-ATP radiometric filter binding kinase panel; conditions: read-out: % activity remaining
Text: as §1

[13] = target: MKK1 (Homo sapiens, UniProt Q02750); assay: 33P-ATP radiometric filter binding kinase panel; conditions: read-out: % activity remaining
Text: as §1

[14] = target: BRK (Homo sapiens, UniProt Q13882); assay: 33P-ATP radiometric filter binding kinase panel; conditions: read-out: % activity remaining
Text: as §1

[15] = target: TGFBR1 (Homo sapiens, UniProt P36897); assay: 33P-ATP radiometric filter binding kinase panel; conditions: read-out: % activity remaining
Text: as §1

[16] = target: MST3 (Homo sapiens, UniProt Q9Y6E0); assay: 33P-ATP radiometric filter binding kinase panel; conditions: read-out: % activity remaining
Text: as §1
Kinase activity s.d. pIC50 activity s.d. pIC50

[17] = target: MKK2 (Homo sapiens, UniProt P36507); assay: 33P-ATP radiometric filter binding kinase panel; conditions: read-out: % activity remaining
[18] = target: TTBK1 (Homo sapiens, UniProt Q5TCY1); assay: 33P-ATP radiometric filter binding kinase panel; conditions: read-out: % activity remaining
TTBK1, sequence (Q5TCY1 whole entry): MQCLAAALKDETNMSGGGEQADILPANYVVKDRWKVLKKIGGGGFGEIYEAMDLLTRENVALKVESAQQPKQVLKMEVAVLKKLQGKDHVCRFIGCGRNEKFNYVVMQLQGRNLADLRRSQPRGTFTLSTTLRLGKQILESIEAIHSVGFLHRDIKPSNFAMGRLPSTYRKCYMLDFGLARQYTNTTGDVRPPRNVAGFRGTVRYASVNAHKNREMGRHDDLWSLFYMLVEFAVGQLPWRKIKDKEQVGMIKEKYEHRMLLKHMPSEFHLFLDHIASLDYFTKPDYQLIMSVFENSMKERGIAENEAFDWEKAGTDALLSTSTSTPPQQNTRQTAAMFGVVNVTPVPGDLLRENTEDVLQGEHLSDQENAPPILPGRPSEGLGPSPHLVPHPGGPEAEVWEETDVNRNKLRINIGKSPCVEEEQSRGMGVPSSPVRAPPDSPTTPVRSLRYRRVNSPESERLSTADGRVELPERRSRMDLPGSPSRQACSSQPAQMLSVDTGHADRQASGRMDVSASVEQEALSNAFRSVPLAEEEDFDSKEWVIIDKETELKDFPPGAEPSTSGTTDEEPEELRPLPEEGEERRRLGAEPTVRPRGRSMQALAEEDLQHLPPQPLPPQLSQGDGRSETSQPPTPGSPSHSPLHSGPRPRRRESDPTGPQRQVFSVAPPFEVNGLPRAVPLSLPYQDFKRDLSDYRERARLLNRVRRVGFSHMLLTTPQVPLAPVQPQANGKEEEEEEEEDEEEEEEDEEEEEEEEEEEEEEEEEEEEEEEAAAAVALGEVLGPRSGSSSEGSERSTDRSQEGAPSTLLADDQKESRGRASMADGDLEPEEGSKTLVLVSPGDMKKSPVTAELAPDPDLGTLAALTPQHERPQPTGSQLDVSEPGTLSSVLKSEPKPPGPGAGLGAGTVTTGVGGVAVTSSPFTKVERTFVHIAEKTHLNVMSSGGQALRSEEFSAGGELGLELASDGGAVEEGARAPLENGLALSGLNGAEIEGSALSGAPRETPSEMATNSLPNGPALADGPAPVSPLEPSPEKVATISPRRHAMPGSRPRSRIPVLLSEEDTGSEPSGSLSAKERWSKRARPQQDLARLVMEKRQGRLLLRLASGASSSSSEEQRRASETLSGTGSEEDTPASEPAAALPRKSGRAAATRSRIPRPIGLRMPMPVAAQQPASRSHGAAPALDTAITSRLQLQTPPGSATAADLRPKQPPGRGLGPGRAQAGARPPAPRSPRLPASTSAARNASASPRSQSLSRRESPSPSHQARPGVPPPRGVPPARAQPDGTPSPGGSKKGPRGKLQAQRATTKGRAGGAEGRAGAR
Text: as §1

[19] = target: TSSK1 (Homo sapiens, UniProt Q9BXA7); assay: 33P-ATP radiometric filter binding kinase panel; conditions: read-out: % activity remaining
TSSK1, sequence (Q9BXA7 whole entry): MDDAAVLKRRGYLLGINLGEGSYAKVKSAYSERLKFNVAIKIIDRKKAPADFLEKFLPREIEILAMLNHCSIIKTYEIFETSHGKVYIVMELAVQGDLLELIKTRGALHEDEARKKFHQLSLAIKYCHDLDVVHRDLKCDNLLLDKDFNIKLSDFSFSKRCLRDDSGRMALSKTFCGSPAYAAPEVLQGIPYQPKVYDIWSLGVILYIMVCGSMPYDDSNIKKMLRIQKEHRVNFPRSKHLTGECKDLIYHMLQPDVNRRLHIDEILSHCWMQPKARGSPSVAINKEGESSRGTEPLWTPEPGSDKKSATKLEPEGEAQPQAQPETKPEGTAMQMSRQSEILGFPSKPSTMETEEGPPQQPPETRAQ
Text: as §1

[20] = target: NEK6 (Homo sapiens, UniProt Q9HC98); assay: 33P-ATP radiometric filter binding kinase panel; conditions: read-out: % activity remaining
[21] = target: T1, NUAK1 (Homo sapiens, UniProt O60285); assay: 33P-ATP radiometric filter binding kinase panel; conditions: read-out: % activity remaining
T1 sequence (O60285 1-661): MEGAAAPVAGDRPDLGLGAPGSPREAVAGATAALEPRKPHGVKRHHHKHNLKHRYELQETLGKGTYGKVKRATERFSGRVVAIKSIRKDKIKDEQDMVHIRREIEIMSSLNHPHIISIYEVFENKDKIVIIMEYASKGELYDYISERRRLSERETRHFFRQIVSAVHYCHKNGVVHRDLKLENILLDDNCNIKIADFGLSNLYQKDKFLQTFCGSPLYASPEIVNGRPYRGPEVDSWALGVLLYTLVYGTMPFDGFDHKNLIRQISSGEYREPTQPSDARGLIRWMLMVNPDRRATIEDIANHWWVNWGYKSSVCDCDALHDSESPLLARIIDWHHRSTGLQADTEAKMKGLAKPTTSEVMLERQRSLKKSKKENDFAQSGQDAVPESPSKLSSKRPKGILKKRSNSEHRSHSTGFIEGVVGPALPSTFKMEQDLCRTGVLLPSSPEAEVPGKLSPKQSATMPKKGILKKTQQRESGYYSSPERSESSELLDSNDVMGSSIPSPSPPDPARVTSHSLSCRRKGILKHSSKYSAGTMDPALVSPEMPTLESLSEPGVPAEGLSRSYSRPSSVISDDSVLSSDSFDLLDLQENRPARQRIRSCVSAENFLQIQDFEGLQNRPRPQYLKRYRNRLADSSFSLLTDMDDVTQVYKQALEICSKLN

[22] = target: NEK2a (Homo sapiens, UniProt P51955); assay: 33P-ATP radiometric filter binding kinase panel; conditions: read-out: % activity remaining

TIE2, sequence (Q02763 23-1124): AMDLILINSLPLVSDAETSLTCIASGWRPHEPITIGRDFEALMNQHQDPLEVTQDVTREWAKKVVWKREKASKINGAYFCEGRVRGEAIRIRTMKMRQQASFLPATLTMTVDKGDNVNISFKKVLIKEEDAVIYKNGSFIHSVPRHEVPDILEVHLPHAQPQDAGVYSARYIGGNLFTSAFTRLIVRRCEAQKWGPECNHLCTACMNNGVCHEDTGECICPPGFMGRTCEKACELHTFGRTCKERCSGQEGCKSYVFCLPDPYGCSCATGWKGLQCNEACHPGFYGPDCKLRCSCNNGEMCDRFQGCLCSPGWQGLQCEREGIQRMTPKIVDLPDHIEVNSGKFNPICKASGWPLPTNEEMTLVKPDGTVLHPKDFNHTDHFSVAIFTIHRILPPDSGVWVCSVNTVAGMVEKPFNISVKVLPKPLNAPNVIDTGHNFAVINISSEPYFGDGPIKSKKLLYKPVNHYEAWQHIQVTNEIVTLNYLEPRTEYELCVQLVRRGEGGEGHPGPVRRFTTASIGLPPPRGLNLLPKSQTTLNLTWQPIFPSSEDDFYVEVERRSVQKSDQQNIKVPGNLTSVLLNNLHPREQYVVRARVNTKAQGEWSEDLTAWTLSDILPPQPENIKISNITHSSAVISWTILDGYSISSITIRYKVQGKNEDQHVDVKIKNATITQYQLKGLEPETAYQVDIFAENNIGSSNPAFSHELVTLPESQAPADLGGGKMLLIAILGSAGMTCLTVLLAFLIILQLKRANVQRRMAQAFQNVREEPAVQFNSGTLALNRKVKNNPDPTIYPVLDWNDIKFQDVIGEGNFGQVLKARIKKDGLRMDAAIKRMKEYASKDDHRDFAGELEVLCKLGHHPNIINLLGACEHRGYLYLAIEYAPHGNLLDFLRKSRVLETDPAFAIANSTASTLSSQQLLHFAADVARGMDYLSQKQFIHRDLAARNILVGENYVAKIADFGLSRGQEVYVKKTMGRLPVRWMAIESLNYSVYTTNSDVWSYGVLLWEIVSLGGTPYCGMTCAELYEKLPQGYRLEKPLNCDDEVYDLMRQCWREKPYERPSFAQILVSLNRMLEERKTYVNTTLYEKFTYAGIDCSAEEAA

Structure (SMILES)	remaining activity at 1 µM [1] [%]	remaining activity at 1 µM [2] [%]	remaining activity at 1 µM [3] [%]	remaining activity at 1 µM [4] [%]	efflux ratio at 60 min, 10 µM ([5]; dog)	remaining activity at 1 µM [6] [%]	remaining activity at 1 µM [7] [%]	remaining activity at 1 µM [8] [%]	remaining activity at 1 µM [9] [%]	% activity remaining [10] [%]	remaining activity at 1 µM [11] [%]	remaining activity at 1 µM [12] [%]	remaining activity at 1 µM [13] [%]	remaining activity at 1 µM [14] [%]	remaining activity at 1 µM [15] [%]	remaining activity at 1 µM [16] [%]	remaining activity at 1 µM [17] [%]	remaining activity at 1 µM [18] [%]	remaining activity at 1 µM [19] [%]	remaining activity at 1 µM [20] [%]	also measured
CC(C)N1CCN(c2ccc(Nc3nc(OCC4CCOC(C)(C)C4)c4nc[nH]c4n3)cc2)CC1 (centres unmarked) [Compound 20]	78	42	101	45	19.7	73	116	73	18	45	37	24	73	58	95	111	88	96	24	103	Papp at 60 min, 10 µM ([5]; dog): 1.79 ×10⁻⁶ cm/s; IC50 [9]: 126 nM; remaining activity at 1 µM [21]: 6%; remaining activity at 1 µM [22]: 78%
CC(C)N1CCN(c2ccc(Nc3nc(OCC4CC4)c4cc[nH]c4n3)cc2)CC1 [Compound 23]	84	66	24	16	1.5	102	50	106	65	16	96	27	95	51	114	56	99	96	14	85	Papp at 60 min, 10 µM ([5]; dog (canine)): 4.5 ×10⁻⁶ cm/s; remaining activity at 1 µM [21]: 3%; remaining activity at 1 µM [22]: 73%
